Assay results published in patent US9085605B2, “Chemical synthesis and anti-tumor and anti-metastatic effects of dual functional conjugate” (Shenzhen Salubris Pharmaceuticals Co., Ltd., priority 2010, dated 2015).
Where two headings read alike, the source gives them in different places.

How the values were obtained:
[1] = test system: lewis lung cancer; assay: Anti-artificial metastasis on Lewis lung cancer in mice (intravenous inoculation); type: in vivo, C57Bl/6 mice; details: TAXOL 3 mg/kg i.p.
Description: The suspension (0.2 mL/mice, 3×10^5 tumor cell) was inoculated intravenously into the tails of fifty C57Bl/6 mice. […] The tumors, spleen and lung were removed and weighed.

[2] = test system: Human lung cancer H460; details: for TGI: 24 mg/kg
Description: Through cell culture in vitro, the tumor was inoculated on nude mice, the tumor grew and passaged for the experiment use. • Animals: BALB/c nude mice, ♀, 4˜5 weeks old, were obtained from the Experimental Lab, Chinese Academy of Medical Science, Certificate NO. […] Experiment Method:
The tumor-bearing mice with good tumor growth and good general physical condition were selected and sacrificed. Tumor was isolated in a sterile condition and cut into fragments (diameter for about 2-3 mm) by surgical knife. The fragments were then hypodermically inoculated in posterior axillary of nude mice by means of a trocar.
After the tumors grew naturally for eight days, the average volume of tumors reaches 130 mm^3. The length and width of tumor was measured using vernier calipers, and divided into groups by the tumor volume.
The mice were divided into five groups for observation, each groups had eight mice. […] Respective drug was administrated for each group from the grouping day.
The experiment was terminated 24 hours after the last administration.
During the experimentation, the tumors sizes (length and width) and body weights of mice were measured once every three days. The tumor volume (TV) and relative tumor volume (RTV) were calculated according to the method for references, and the tumor volume growth tendency chart was plotted.
At the end of the experiment, the mice were sacrificed. Tumors were removed and weighed, and the inhibition rate of the tumor growth by drugs was calculated. Statistical significance of the tumor weight, tumor volume and RTV level were evaluated by t-test.
[formula] • (C, average tumor weight of control group; T, average tumor weight of administrated group) • Tumor Volume (TV)=length×width^2/2. • Relative Tumor Volume (RTV) formula: Vt/Vo • (Vo is the volume of TV at the beginning of the grouping, and Vt is the volume of TV at measure time) • Anti-tumor activities were evaluated by Tumor Relative proliferation Rate T/C (%)
[formula] • Therapeutic effect evaluation standard: T/C (%)>40, was judged as invalid; • T/C (%)≦40, and through statistical evaluation P<0.05, was judged as valid.

[3] = test system: lewis lung cancer; details: TAXOL 6 mg/kg i.p. once daily
Description: C57Bl/6 mice with lewis lung cancer were sacrificed and the tumor was removed. The tumor cell suspension (5×10^6 cell/mL) was prepared in a sterile condition. The suspension (0.2 mL/mice, 1×10^6 tumor cell) was inoculated subcutaneously into the axillary of 24 C57Bl/6 mice. […] From the 7th day after the implantation, the long diameter and short diameter of tumor was measured every 2 days. Tumor volume was calculated by the formula (½)×long diameter×short diameter^2. Drug was withdrawn on the eighteenth day after the implantation. All mice were then sacrificed and the body weight was measured. The tumors, spleen and lung were removed and weighed. The lungs were fixed in Bouin's fixative for 24 h. The numbers of lung metastasis nodule were counted, and the statistics was evaluated by Mann-Whitney U test.

[4] = test system: human breast cancer line MDA-MB-231; assay: Tumor growth inhibition in nude mice xenograft model, MDA-MB-231; details: Paclitaxel 24 mg/kg × 4, intermittent i.p.
Description: • 1. […] Drug administration dose were set as: 10 mg/kg, 15 mg/kg, and 20 mk/kg, drug administration volume was 0.2 mL/20 g. • 2. […] MDA [Peptide (P) 0.54 mg/mL (0.001M), Example 10], a colorless and clear liquid, was prepared by the commission, can be directly used after the repackaging in a sterile condition, stored at 4° C. […] Certificate NO. […] SYSK (BeiJing) 2004-0001. Experiment Methods:
The mice were divided into groups and administrated drug after 11 days.
The mice were divided into eight groups, each group had 6-8 mice. The groups contained Negative control. […] After grouping, all mice were administrated with drug by intraperitoneal injection once a day depends on their body weight.
Other groups were administered with drugs for 24 times successively. The experiment was completed 24 h after the last administration.
The mice were sacrificed, and tumors were isolated and their weight was measured, and the inhibition rate of tumor growth by drugs were calculated. […] Calculation methods and formula were omitted.

[5] = test system: Mice breast cancer cell line (4T1, ATCC CRL2539); details: TAXOL 3 mg/kg i.p. once daily
Description: Mice breast cancer cell line (4T1, ATCC CRL2539) was a generous gift from Prof. Wei Liang of the Institute of biophysics, Chinese Academy of Sciences. The cell was cultured in the 1640 medium (Gibco) containing 10% fetal bovine serum (FBS), 1% glutamine and 1% penicillin.
4T1 cells in logarithmic phase were collected and the concentration was adjusted to 2×10^6/mL. 4T1 tumors were introduced in female BALB/c mice by injecting subcutaneously into the fourth fat pad area of the right abdominal mammary gland with the dose of 2×10^5/0.1 mL. […] From the 9th day after implantation, tumor growth was measured every 2 days with vernier calipers for determining the long diameter and short diameter of tumor. Tumor volume was calculated by the formula (½)×long diameter×short diameter^2. Drug was withdrawn on the twenty-eight days after the implantation, all mice were then sacrificed and the body weight were measured. The tumors, spleen and lung were removed and weighed. The lungs were fixed in Bouin's fixative for 24 h. The numbers of lung metastasis nodule were counted, the statistics was evaluated using Mann-Whitney U test.

[6] = Paclitaxel injection 24 mg/kg × 4, once every three days

CC(=O)O[C@H]1C(=O)[C@@]2(C)[C@H]([C@H](OC(=O)c3ccccc3)[C@]3(O)C[C@H](OC(=O)[C@H](O)[C@@H](NC(=O)c4ccccc4)c4ccccc4)C(C)=C1C3(C)C)[C@]1(OC(C)=O)CO[C@@H]1C[C@@H]2O [Paclitaxel, reference compound]
Lung weight [1]: 497 ± 491 mg
Lung metastasis nodule counts ([1]; listed as TAXOL): 38.5 ± 28
Lung metastasis nodule counts ([1]; listed as Taxol): no significant improvement
Body weight Beginning [2, 6]: 18.9 ± 1.28 g
Body weight End [2, 6]: 18.6 ± 1.41 g
RTV [2, 6]: 11.9 ± 3.16
T/C [2, 6]: 35.6%
Tumor volume Beginning [2, 6]: 130 ± 36.7 mm^3
Tumor volume End [2, 6]: 1583 ± 507.2 mm^3
Tumor weight [2, 6]: 1.16 ± 0.410 g
TGI ([2]; Paclitaxel injection 24 mg/kg × 4, once every three days, listed as Paclitaxel injection): 61.0%
TGI ([2]; Paclitaxel injection 24 mg/kg × 4, once every three days, listed as paclitaxel): 61%
Body weight lost compared with the average weight at the beginning of grouping ([2]; paclitaxel 24 mg/kg intermittently): 2
Tumor growth inhibition rate compared with negative control ([2]; paclitaxel 24 mg/kg, after the fourth administration): 65%
Lung metastasis nodule counts ([3]; listed as TAXOL): 24.9 ± 9
Lung metastasis nodule counts ([3]; listed as Taxol): no significant improvement
RTV [4]: 3.18 ± 2.735
T/C [4]: 17.64%
TGI [4]: 84.9%
Tumor volume Beginning [4]: 133 ± 39.8 mm^3
Tumor volume End [4]: 422 ± 404.6 mm^3
Tumor weight [4]: 0.43 ± 0.416 g
Lung weight [5]: 190 ± 49 mg
Lung metastasis nodule counts ([5]; listed as TAXOL): 41.2 ± 9
Lung metastasis nodule counts ([5]; listed as Taxol): no significant improvement
